Assay results taken from ChEMBL document CHEMBL5154863, “Design and synthesis of quinolinium-based derivatives targeting FtsZ for antibacterial evaluation and mechanistic study” (Eur J Med Chem, 2022).
Calls of active or inactive are those of the source. No cut-off for these calls is given here.

Assays:
Staphylococcus aureus [1] = test: Bactericidal activity against Staphylococcus aureus ATCC 43300 assessed as inhibition of bacterial growth incubated for 24 hrs by resazurin dye based microtiter plate assay; type: functional
Enterococcus faecium [2] = test: Bactericidal activity against Enterococcus faecium ATCC 700221 assessed as inhibition of bacterial growth incubated for 24 hrs by resazurin dye based microtiter plate assay; type: functional
Staphylococcus aureus [3] = test: Antibacterial activity against methicillin-resistant Staphylococcus aureus ATCC BAA41 assessed as inhibition of bacterial growth incubated for 24 hrs by checker board assay; type: functional
Staphylococcus aureus [4] = test: Antibacterial activity against Staphylococcus aureus ATCC 29213 assessed as inhibition of bacterial growth incubated for 20 to 24 hrs by broth micro dilution method; type: functional; settings: time 20-24 hrs
Bacillus subtilis [5] = test: Antibacterial activity against Bacillus subtilis CMCC (B) 63501 assessed as inhibition of bacterial growth incubated for 20 to 24 hrs by broth micro dilution method; type: functional; settings: time 20-24 hrs
[6] = target: T1, Cell division protein FtsZ (Staphylococcus aureus) (UniProt P0A031); test: Binding affinity to Staphylococcus aureus FtsZ assessed as decrease in random coil structure at 8 ug/ml incubated for 30 mins by circular dichroism method (reference value: 34.5 %); set-up: scale not given: the % may be the effect or the level left; settings: dose 8.0 µg/ml
T1 sequence (whole entry): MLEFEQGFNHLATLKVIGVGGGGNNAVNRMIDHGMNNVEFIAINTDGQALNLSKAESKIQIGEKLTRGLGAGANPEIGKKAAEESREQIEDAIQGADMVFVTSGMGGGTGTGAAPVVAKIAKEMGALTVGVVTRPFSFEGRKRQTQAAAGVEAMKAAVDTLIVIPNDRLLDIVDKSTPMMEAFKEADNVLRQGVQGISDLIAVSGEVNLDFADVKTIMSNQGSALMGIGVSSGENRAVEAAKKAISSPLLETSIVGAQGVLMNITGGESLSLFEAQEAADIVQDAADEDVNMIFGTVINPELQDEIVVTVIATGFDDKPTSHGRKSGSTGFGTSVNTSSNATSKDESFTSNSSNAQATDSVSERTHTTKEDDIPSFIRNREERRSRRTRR

Staphylococcus aureus [7] = test: Antibacterial activity against vancomycin-intermediate Staphylococcus aureus Mu50 assessed as inhibition of bacterial growth incubated for 20 to 24 hrs by broth micro dilution method; type: functional; settings: time 20-24 hrs
[8] = target: T1, Cell division protein FtsZ (Staphylococcus aureus); test: Binding affinity to Staphylococcus aureus FtsZ assessed as increase in alpha helix structure at 8 ug/ml incubated for 30 mins by circular dichroism method (reference value: 30.5 %); settings: dose 8.0 µg/ml
[9] = test system: Staphylococcus epidermidis; test: Antibacterial activity against Staphylococcus epidermidis ATCC 12228 assessed as inhibition of bacterial growth incubated for 20 to 24 hrs by broth micro dilution method; type: functional; settings: time 20-24 hrs
Escherichia coli [10] = test: Antibacterial activity against Escherichia coli ATCC 8739 assessed as inhibition of bacterial growth incubated for 20 to 24 hrs by broth micro dilution method; type: functional; settings: time 20-24 hrs
[11] = Ratio of MBC for bactericidal activity against Staphylococcus aureus ATCC 29213 to MIC for antibacterial activity against Staphylococcus aureus ATCC 29213; type: functional
[12] = Cytotoxicity against mouse L929 cells incubated for 48 hrs by MTT assay; type: toxicity, cell-based
[13] = target: T1, Cell division protein FtsZ (Staphylococcus aureus); test: Binding affinity to Staphylococcus aureus FtsZ assessed as equilibrium binding constant by isothermal titration calorimetry
Staphylococcus aureus [14] = test: Antibacterial activity against Staphylococcus aureus ATCC 29213 assessed as assessed as reduction in viable bacterial count upto 8 times MIC measured after 8 hrs by time-kill kinetics assay; type: functional
[15] = target: T1, Cell division protein FtsZ (Staphylococcus aureus); test: Induction of Staphylococcus aureus FtsZ polymerization expressed in Escherichia coli BL21 (DE3) assessed as increase in absorbance at 2 to 8 ug/ml by microplate reader method; settings: dose 2-8 µg/ml
Staphylococcus aureus [16] = test: Antibacterial activity against methicillin-resistant Staphylococcus aureus ATCC 33592 assessed as inhibition of bacterial growth incubated for 20 to 24 hrs by broth micro dilution method; type: functional; settings: time 20-24 hrs
Enterococcus faecalis = test: Antibacterial activity against Enterococcus faecalis ATCC 29212 assessed as inhibition of bacterial growth incubated for 20 to 24 hrs by broth micro dilution method; type: functional; settings: time 20-24 hrs
Pseudomonas aeruginosa = test: Antibacterial activity against […] Pseudomonas aeruginosa ATCC 27853 assessed as inhibition of bacterial growth incubated for 20 to 24 hrs by broth micro dilution method; type: functional; settings: time 20-24 hrs
[17] = target: T1, Cell division protein FtsZ (Staphylococcus aureus); test: Binding affinity to Staphylococcus aureus FtsZ assessed as decrease in beta turn structure at 8 ug/ml incubated for 30 mins by circular dichroism method (reference value: 17.4 %); set-up: scale not given: the % may be the effect or the level left; settings: dose 8.0 µg/ml
Staphylococcus aureus [18] = test: Antibacterial activity against methicillin-resistant Staphylococcus aureus ATCC 43300 assessed as inhibition of bacterial growth incubated for 20 to 24 hrs by broth micro dilution method; type: functional; settings: time 20-24 hrs
Staphylococcus aureus [19] = test: Antibacterial activity against Staphylococcus aureus ATCC 29213 infected in L929 cells assessed as inhibition of bacterial growth incubated for 20 to 24 hrs by broth micro dilution method; type: functional; settings: time 20-24 hrs
[20] = Ratio of MBC for bactericidal activity against Enterococcus faecium ATCC 700221 to MIC for antibacterial activity against Enterococcus faecium ATCC 700221; type: functional
Erythrocyte = test: Hemolytic activity in Kunming mouse erythrocyte at 1 to 64 ug/ml incubated for 1 hr; type: toxicity, cell-based; settings: dose 1-64 µg/ml
Bacillus subtilis [21] = test: Induction of morphological changes in Bacillus subtilis CMCC (B) 63501 assessed as elongation of bacterial cell at 0.5 times MIC for 4 hrs (reference value: 3 to 5 um) by microscopic analysis; type: functional
Enterococcus faecium [22] = test: Antibacterial activity against vancomycin resistant Enterococcus faecium ATCC 700221 assessed as inhibition of bacterial growth incubated for 20 to 24 hrs by broth micro dilution method; type: functional; settings: time 20-24 hrs
Escherichia coli [23] = test: Antibacterial activity against Escherichia coli ATCC 25922 assessed as inhibition of bacterial growth incubated for 20 to 24 hrs by broth micro dilution method; type: functional; settings: time 20-24 hrs
Bacillus subtilis [24] = test: Bactericidal activity against Bacillus subtilis CMCC (B) 63501 assessed as inhibition of bacterial growth incubated for 24 hrs by resazurin dye based microtiter plate assay; type: functional
Staphylococcus aureus [25] = test: Antibacterial activity against Staphylococcus aureus ATCC 29213 infected in HK-2 cells assessed as inhibition of bacterial growth incubated for 20 to 24 hrs by broth micro dilution method; type: functional; settings: time 20-24 hrs
[26] = target: T2, Cell division protein FtsZ (Staphylococcus aureus, UniProt P0A031); test: Binding affinity to Staphylococcus aureus FtsZ assessed as dissociation constant by isothermal titration calorimetry
T2 sequence (P0A031 whole entry): T1 sequence (whole entry)

[27] = Cytotoxicity against human HK-2 cells incubated for 48 hrs by MTT assay; type: toxicity, cell-based
Staphylococcus aureus [28] = test: Antibacterial activity against methicillin-resistant Staphylococcus aureus ATCC BAA-1720 assessed as inhibition of bacterial growth incubated for 20 to 24 hrs by broth micro dilution method; type: functional; settings: time 20-24 hrs
Staphylococcus aureus [29] = test: Induction of morphological changes in Staphylococcus aureus ATCC 29213 assessed as enlargement of cell size at 0.5 times MIC for 4 hrs by microscopic analysis; type: functional, organism-based
Acinetobacter baumannii = test: Antibacterial activity against multi-drug resistant Acinetobacter baumannii ATCC 19606 assessed as inhibition of bacterial growth incubated for 20 to 24 hrs by broth micro dilution method; type: functional; settings: time 20-24 hrs
Staphylococcus aureus [30] = test: Synergistic antibacterial activity against methicillin-resistant Staphylococcus aureus ATCC BAA41 assessed as inhibition of bacterial growth incubated for 24 hrs in presence of methicillin by checker board assay; type: functional

With `CC1CCN(c2cc(/C=C/c3ccc(N(C)C)cc3)[n+](C)c3ccccc23)CC1.[I-]` the MBC (Staphylococcus aureus [1]) was 8 µg/mL, the MBC (Enterococcus faecium [2]) was 4 µg/mL and the MIC (Staphylococcus aureus [3]) was 8 µg/mL. For the same compound, the MIC (Staphylococcus aureus [4]) was 1 µg/mL, the MIC (Bacillus subtilis [5]) was 4 µg/mL and the Activity [6] was 28.4%. The MIC (Staphylococcus aureus [7]) was 1 µg/mL, the Activity [8] was 41% and the MIC [9] was 0.25 µg/mL. It also gave an MIC (Escherichia coli [10]) of 64 µg/mL, a Ratio [11] of over 4 and an IC50 at 48 h [12] of 12.8 µg/mL. The Kb [13] was 4.41 10^5/M, the Activity (Staphylococcus aureus [14]) was 1000 CFU/ml and the Activity [15] was “Active”. The MIC (Staphylococcus aureus [16]) was 0.5 µg/mL, the MIC (Enterococcus faecalis) was 2 µg/mL and the MIC (Pseudomonas aeruginosa) was over 64 µg/mL. It also gave an Activity [17] of 15.5%, an MIC (Staphylococcus aureus [18]) of 1 µg/mL and an MIC (Staphylococcus aureus [19]) of 1 µg/mL. It also gave a Ratio [20] of 4, an IC5 (Erythrocyte) of 64 µg/mL and an Activity (Bacillus subtilis [21]) of 70 um. It also gave an MIC (Enterococcus faecium [22]) of 1 µg/mL, an MIC (Escherichia coli [23]) of 8 µg/mL and an MBC (Bacillus subtilis [24]) of 4 µg/mL. The MIC (Staphylococcus aureus [25]) was 1 µg/mL, the Kd [26] was 3.84 µM and the IC50 at 48 h [27] was 9.42 µg/mL. The MIC (Staphylococcus aureus [28]) was 1 µg/mL, the Activity (Staphylococcus aureus [29]) was “Active” and the MIC (Acinetobacter baumannii) was over 64 µg/mL. It also gave an MIC (Staphylococcus aureus [30]) of 2 µg/mL.
